Results taken from patent publication US20170209445A1, “KINASE INHIBITORS” (Respivert Limited, priority 2014, published 2017).
Marks after values point to notes of the source that are not given here.

Columns and labels:
Jurkat cells = assay: Cell cytotoxicity assay (Jurkat cell viability); type: cell-based, human; settings: 24 hours
Experimental: 1×10^5 Jurkat cells (immortalised human T lymphocytes) are added to the appropriate number of wells of a 96 well plate in 100 μL of media (RPMI supplemented with 10% foetal bovine serum). 1 μL of DMSO control (final concentration 1.0% v/v) or test compound (final concentration 20, 5 or 1 μg/mL) is added to the wells and incubated at 37° C., 5% CO2. After 24 hours, the plate is centrifuged at 1200 rpm for 3 minutes and the supernatant discarded. Cells are then resuspended in 150 μL (final concentration 7.5 μg/mL) of propidium iodide (PI) in PBS and incubated at 37° C., 5% CO2 for 15 minutes. After 15 minutes, cells are analysed by flow cytometry (BD accuri) using the FL3 window. The % viability is calculated as the % of cells that are PI negative in the test wells normalised to the DMSO control.

PBMCs = assay: LPS-induced IL-8 release in PBMC cells; type: cell-based; settings: Homo sapiens, LPS-stimulated PBMCs, read-out: IC50 Values for Inhibition of Cytokine Release PBMCs IL-8
Method in brief: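 Healthy-donor PBMCs isolated by density gradient were pretreated with compound for 2 h, then stimulated with 1 ng/mL LPS (E. coli 0111:B4) for 24 h at 37° C., 5% CO2. IL-8 and TNFα in supernatants measured by sandwich ELISA.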

c-Src = biological target: T1, c-Src (Homo sapiens, UniProt P12931); assay: c-Src enzyme inhibition, FRET Z-LYTE; type: biochemical
T1 construct: purchased Invitrogen
T1 sequence (P12931 whole entry): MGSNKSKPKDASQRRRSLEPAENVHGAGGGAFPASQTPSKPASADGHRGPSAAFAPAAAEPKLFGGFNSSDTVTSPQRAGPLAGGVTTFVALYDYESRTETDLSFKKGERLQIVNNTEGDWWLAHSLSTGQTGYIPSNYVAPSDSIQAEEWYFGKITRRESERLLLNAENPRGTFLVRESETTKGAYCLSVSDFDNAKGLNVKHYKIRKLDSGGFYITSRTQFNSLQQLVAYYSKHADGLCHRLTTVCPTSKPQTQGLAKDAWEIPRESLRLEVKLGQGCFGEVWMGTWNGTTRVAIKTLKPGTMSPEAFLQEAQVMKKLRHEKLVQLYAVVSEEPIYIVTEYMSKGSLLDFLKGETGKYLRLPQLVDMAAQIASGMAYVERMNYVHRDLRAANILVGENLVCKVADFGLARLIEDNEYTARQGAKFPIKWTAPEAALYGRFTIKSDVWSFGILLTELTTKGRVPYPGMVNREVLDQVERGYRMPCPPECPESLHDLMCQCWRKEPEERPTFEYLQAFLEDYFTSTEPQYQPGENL
Experimental: (§1) The enzyme inhibitory activities of compounds disclosed herein are determined by FRET using synthetic peptides labelled with both donor and acceptor fluorophores (Z-LYTE, Invitrogen Ltd., Paisley, UK).
(§2) The inhibitory activities of compounds of the invention against c-Src and Syk enzymes (Invitrogen), are evaluated in a similar fashion to that described hereinabove. The relevant enzyme (3000 ng/mL or 2000 ng/mL respectively, 2.5 μL) is incubated with the test compound (either 4 μg/mL, 0.4 μg/mL, 0.04 μg/mL, or 0.004 μg/mL, 2.5 μL each) for 2 hr at RT. The FRET peptides (8 μM, 2.5 μL), and appropriate ATP solutions (2.5 μL, 800 μM for c-Src, and 60 μM ATP for Syk) are then added to the enzymes/compound mixtures and incubated for 1 hr. Development reagent (protease, 5 μL) is added for 1 hr prior to detection in a fluorescence microplate reader (Varioskan® Flash, ThermoFisher Scientific).
(§3) In all cases, the site-specific protease cleaves non-phosphorylated peptide only and eliminates the FRET signal. Phosphorylation levels of each reaction are calculated using the ratio of coumarin emission (donor) over fluorescein emission (acceptor), for which high ratios indicate high phosphorylation and low ratios indicate low phosphorylation levels.

GSK3α = biological target: T2, GSK3α (Homo sapiens, UniProt P49840); assay: GSK3α enzyme inhibition (Method 2), FRET Z-LYTE; type: biochemical
T2 construct: purchased Invitrogen
T2 sequence (P49840 whole entry): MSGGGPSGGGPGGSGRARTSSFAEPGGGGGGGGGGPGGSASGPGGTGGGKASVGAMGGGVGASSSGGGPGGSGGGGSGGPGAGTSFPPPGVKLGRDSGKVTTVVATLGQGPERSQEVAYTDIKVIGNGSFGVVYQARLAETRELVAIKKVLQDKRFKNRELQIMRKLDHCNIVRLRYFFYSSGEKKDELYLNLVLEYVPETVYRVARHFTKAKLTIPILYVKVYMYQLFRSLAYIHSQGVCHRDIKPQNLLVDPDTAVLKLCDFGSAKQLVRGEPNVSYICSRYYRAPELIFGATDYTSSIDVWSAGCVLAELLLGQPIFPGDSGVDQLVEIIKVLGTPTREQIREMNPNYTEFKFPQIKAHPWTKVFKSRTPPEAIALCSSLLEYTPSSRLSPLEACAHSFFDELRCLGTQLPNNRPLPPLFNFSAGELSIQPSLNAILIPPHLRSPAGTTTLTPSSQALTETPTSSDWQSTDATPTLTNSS
Experimental: as §1
The inhibitory activities of compounds of the invention against the GSK 3α enzyme isoform (Invitrogen), are evaluated by determining the level of activation/phosphorylation of the target peptide. The GSK3-α protein (500 ng/mL, 2.5 μL) is mixed with the test compound (2.5 μL at either 4 μg/mL, 0.4 μg/mL, 0.04 μg/mL, or 0.004 μg/mL) for 2 hr at RT. The FRET peptide (8 μM, 2.5 μL), which is a phosphorylation target for GSK3α, and ATP (40 μM, 2.5 μL) are then added to the enzyme/compound mixture and the resulting mixture incubated for 1 hr. Development reagent (protease, 5 μL) is added for 1 hr prior to detection in a fluorescence microplate reader (Varioskan® Flash, ThermoFisher Scientific).
as §3
This method follows the same steps as Method 1 above, but utilises a shorter period of mixing of the test compound (105 minutes instead of 2 hours) with the GSK3-α protein.

Syk = biological target: T3, Syk (Homo sapiens, UniProt P43405); assay: Syk enzyme inhibition, FRET Z-LYTE; type: biochemical
T3 construct: purchased Invitrogen
Experimental: as §1, §2, §3

p38 MAPKα = biological target: T4, p38 MAPKα (Homo sapiens, UniProt Q16539); assay: p38 MAPKα enzyme inhibition (Method 2), FRET Z-LYTE; type: biochemical
T4 construct: purchased Invitrogen
T4 sequence (Q16539 whole entry): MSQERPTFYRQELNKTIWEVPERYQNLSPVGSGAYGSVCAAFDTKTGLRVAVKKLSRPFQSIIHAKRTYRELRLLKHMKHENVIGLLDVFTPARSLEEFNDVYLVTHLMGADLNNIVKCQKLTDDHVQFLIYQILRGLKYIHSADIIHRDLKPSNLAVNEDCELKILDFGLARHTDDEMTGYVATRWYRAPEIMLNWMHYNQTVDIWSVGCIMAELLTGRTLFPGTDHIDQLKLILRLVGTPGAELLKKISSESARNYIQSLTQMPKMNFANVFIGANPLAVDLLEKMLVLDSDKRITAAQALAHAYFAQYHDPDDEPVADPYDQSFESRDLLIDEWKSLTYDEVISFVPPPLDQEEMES
Experimental: as §1
The inhibitory activities of test compounds against the p38 MAPKα isoform (MAPK14: Invitrogen), are evaluated indirectly by determining the level of activation/phosphorylation of the down-stream molecule, MAPKAP-K2. The p38 MAPKα protein (80 ng/mL, 2.5 μL) is mixed with the test compound (2.5 μL of either 4 μg/mL, 0.4 μg/mL, 0.04 μg/mL or 0.004 μg/mL) for 2 hr at RT. […] The mixture is incubated for 1 hr at RT. Development reagent (protease, 5 μL) is added for 1 hr prior to detection in a fluorescence microplate reader (Varioskan® Flash, ThermoFisher Scientific).
This method follows the same steps as Method 1 above, but utilises a higher concentration of the p38 MAPKα protein (2.5 μL of 200 ng/mL protein instead of 2.5 μL of 80 ng/mL protein) for mixing with the test compound.
as §3

[1] = Hydrolytic stability study; type: physicochemical; settings: DMSO/water (3:1); for % Parent Remaining, cumulative average from multiple experiments / % Parent Remaining: 1 mg/mL; for % Parent Remaining: experiment in which Example 2 was tested
Experimental: Chemical stability of compounds of the invention was assessed in a mixture of DMSO and water (3:1) at a test compound concentration of 1 mg/mL
General HPLC Procedure • Agilent, Waters X-Select C18, 2.5 μm, 4.6×30 mm column, 4 min method, 5-95% • MeCN/water (0.1% formic acid). • Flow rate 2.5 ml/min. • Column Oven Temperature 40° C. • Detection 254 nm.
Sample Preparation • A 1.0 mg sample of test compound was dissolved in 1 mL of DMSO/water (3:1) and the resulting mixture was stirred at rt overnight.
Recording Stability • A 50 μL aliquot of the test solution was removed and analysed in duplicate by 5 μL HPLC injections. The peak area for the test compound (taken to be 100% product, 0% degradation) was recorded following manual integration of the corresponding UV trace. The area retention time was also recorded. • The test solution was heated to 60° C. internal temperature (65° C. block temperature), with stirring, and timing commenced once the target temperature had been reached. After 5 and 24 h, samples were removed and analysed by HPLC (5 μL injections). In all cases, 5 μL injections were used and the samples analysed in duplicate. • The peak areas for the test compounds were recorded at both subsequent timepoints and the % decomposition calculated from the % change in peak area over time.

Structure (SMILES)	% Viability at 1 μg/mL (Jurkat cells) [%]	% Viability at 5 μg/mL (Jurkat cells) [%]	% Viability at 20 μg/mL (Jurkat cells) [%]	IC50 (PBMCs) [µM]	also measured
C#Cc1cc(Nc2ncc3cc(-c4cc(C(=O)Nc5cc(C(C)(C)C)cc(NS(C)(=O)=O)c5OC)ccc4C)ccc3n2)cc(C(=O)NCCOCCOCCOC)c1 [14(g), N-(5-(tert-Butyl)-2-methoxy-3-(methylsulfonamido)phenyl)-3-(2-((3-ethynyl-5-((2-(2-(2-methoxyethoxy)ethoxy)ethyl)carbamoyl)phenyl)amino)quinazolin-6-yl)-4-methylbenzamide]	110.1	75.5	65.4	0.0173	
COc1c(NC(=O)c2ccc(C)c(-c3ccc4nc(Nc5cccc(CP(C)(C)=O)c5)ncc4c3)c2)cc(C(C)(C)C)cc1NS(C)(=O)=O [14(i), N-(5-(tert-Butyl)-2-methoxy-3-(methylsulfonamido)phenyl)-3-(2-((3-((dimethylphosphoryl)methyl)phenyl)amino)quinazolin-6-yl)-4-methylbenzamide]	69.8	8.4	2.1	0.0069	
COCCOCCOCCOc1cc(Nc2ncc3cc(-c4cc(C(=O)Nc5cccc(C(F)(F)F)c5)ccc4C)ccc3n2)cc(OC)c1 [Example 1, 3-(2-((3-Methoxy-5-(2-(2-(2-methoxyethoxy)ethoxy)ethoxy)phenyl)amino)quinazolin-6-yl)-4-methyl-N-(3-(trifluoromethyl)phenyl)benzamide]				0.134	IC50 (c-Src): 0.014 µM; IC50 (GSK3α): > 14.5 µM; IC50 (Syk): > 1.45 µM; IC50 (p38 MAPKα): 0.776 µM
COc1cc(Nc2ncc3cc(-c4cc(C(=O)Nc5cc(C(C)(C)C)cc(P(C)(C)=O)c5OC)ccc4C)ccc3n2)cc(C(=O)NCCN2CCOCC2)c1 [Example 4, N-(5-(tert-Butyl)-3-(dimethylphosphoryl)-2-methoxyphenyl)-3-(2-((3-methoxy-5-((2-morpholinoethyl)carbamoyl)phenyl)amino)quinazolin-6-yl)-4-methylbenzamide]				0.0148	IC50 (GSK3α): > 12.8 µM
COc1c(NC(=O)c2ccc(C)c(-c3ccc4nc(Nc5ccc(N=S(C)(C)=O)cc5)ncc4c3)c2)cc(C(C)(C)C)cc1NS(C)(=O)=O [Example 7, N-(5-(tert-Butyl)-2-methoxy-3-(methylsulfonamido)phenyl)-3-(2-((4-((dimethyl(oxo)-I6-sulfanylidene)amino)phenyl)amino)quinazolin-6-yl)-4-methylbenzamide]	79.0	54.7	49.7	0.0038	
COc1cc(Nc2ncc3cc(-c4cc(C(=O)Nc5cc(C(C)(C)C)cc(NS(C)(=O)=O)c5OC)ccc4C)ccc3n2)ccc1C(=O)O [Example 8, 4-((6-(5-((5-(tert-Butyl)-2-methoxy-3-(methylsulfonamido)phenyl)carbamoyl)-2-methylphenyl)quinazolin-2-yl)amino)-2-methoxybenzoic acid]	91.1	65.8	30.6	0.004	
COc1cc(Nc2ncc3cc(-c4cc(C(=O)Nc5cc(C(C)(C)C)cc(NS(C)(=O)=O)c5OC)ccc4C)ccc3n2)ccc1C(=O)N(C)CCN1CCOCC1 [Example 9, 4-((6-(5-((5-(tert-Butyl)-2-methoxy-3-(methylsulfonamido)phenyl)carbamoyl)-2-methylphenyl)quinazolin-2-yl)amino)-2-methoxy-N-methyl-N-(2-morpholinoethyl)benzamide]	63.0	38.4	28.7	0.0031	
COCC(=O)Nc1cc(Oc2ccc(NC(=O)Nc3cc(C(C)(C)C)nn3-c3ccc(C)cc3)c3ccccc23)ccn1 [Reference Compound A, N-(4-(4-(3-(3-tert-butyl-1-p-tolyl-1H-pyrazol-5-yl)ureido)naphthalen-1-yloxy)pyridin-2-yl)-2-methoxyacetamide, reference compound]	23.5	18.9	17.3		
C#Cc1cc(Nc2nccc(Oc3ccc(NC(=O)Nc4cc(C(C)C)nn4-c4ccc(C)cc4)c4ccccc34)n2)cc(C(=O)NCCN2CCOCC2)c1 [Reference Compound B, 3-ethynyl-5-((4-((4-(3-(3-isopropyl-1-(p-tolyl)-1H-pyrazol-5-yl)ureido)naphthalen-1-yl)oxy)pyrimidin-2-yl)amino)-N-(2-morpholinoethyl)benzamide]					% Parent Remaining, cumulative average from multiple experiments ([1]; 60° C., 300 min): 71.0%; % Parent Remaining ([1]; 60° C., 300 min): 93.3%; % Parent Remaining, cumulative average from multiple experiments ([1]; 60° C., 1440 min): 26.0%; % Parent Remaining ([1]; 60° C., 1440 min): 52.3%; % Parent Remaining, cumulative average from multiple experiments ([1]; time 0 min): 100^a (100^b) %; % Parent Remaining ([1]; time 0 min): 100^a (100^b) %; decomposition under the conditions of the hydrolytic stability experiment, in words ([1]; 60° C.): underwent substantial decomposition
